Source: patent US8748111B2, “Multiplexed olfactory receptor-based microsurface plasmon polariton detector” (Massachusetts Institute of Technology, priority 2008, dated 2014)
Where “and” joins values, the source holds several entries; their conditions need not be identical. Identical values can stand only once. Entries after “also recorded” stand apart in the source; their conditions may differ.

Tests used:
hOR17-4 [1] = target: T1, hOR17-4 (Homo sapiens, UniProt P34982, R25Q); assay: Intracellular calcium-ion mobility assay in induced HEK293S cells; assay type: cell-based; set-up: of which 969 by code for the 323 amino acid hOR17-4-GlyGly-rho1D4 protein; made in house; conditions: for cytosolic Ca2+ response to odorant: Fura-Red
T1 sequence (P34982 with tags, fused parts or gaps R25Q): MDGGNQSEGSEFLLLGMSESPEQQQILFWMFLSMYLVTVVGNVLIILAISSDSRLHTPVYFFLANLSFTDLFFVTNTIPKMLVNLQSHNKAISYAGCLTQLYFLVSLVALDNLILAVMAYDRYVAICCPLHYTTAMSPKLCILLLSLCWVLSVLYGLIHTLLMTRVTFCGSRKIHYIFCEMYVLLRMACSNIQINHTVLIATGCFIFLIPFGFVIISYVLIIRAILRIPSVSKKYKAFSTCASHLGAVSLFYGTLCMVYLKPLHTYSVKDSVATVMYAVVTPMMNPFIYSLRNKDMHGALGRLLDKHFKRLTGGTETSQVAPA
Experimental: To determine if receptors expressed at the surface of induced HEK293S rho5 cells was functional, we performed calcium-influx assays. In our heterologous HEK293S system, olfactory receptors can signal through the inositol triphosphate (IP3) pathway to release intracellular Ca2+, using the “promiscuous” G-protein Gαq.
HEK293S rho5 cells were seeded and grown on glass coverslips until they reached 80-90% confluency. Expression of hOR17-4 was then induced with media containing tetracycline (1 μg/ml) for 48 hours. Cells were then washed with PBS and loaded with the calcium sensitive dye Fluo-3 (Invitrogen) according to the manufacturers instructions. Coverslips were then mounted and visualized using time-lapse confocal microscopy. Experiments were conducted in PBS and odorant stocks were added by hand using a pipettor to final concentrations between 1-100 μM. Both specific and non-specific odorants were tested. As an additional control to test whether cells could increase internal calcium levels, 1 mM ATP was added.
The functional activity and specificity of hOR17-4 was probed in heterologous HEK293S cells by monitoring intracellular calcium-ion concentrations using time-lapse confocal microscopy (19). In our HEK293S cells, olfactory receptors can signal through the inositol triphosphate (IP3) pathway to release intracellular Ca^2+ from the ER, mediated by the “promiscuous” G-protein Gαq. Induced cells responded to the specific odorant bourgeonal at concentrations as low as 1 μM (FIG. 28). […] Importantly, nearly 100% of the cells were responsive to bourgeonal due to the stable-inducible nature of this system, a vast improvement over expression methods that relied on transient transfection with less than 5% of cells being responsive (3).
hOR17-4 expression in the stable HEK293S cell line was induced by 48-hour incubation in DMEM/F12 medium with GlutaMAX, supplemented with 1 μg/ml tetracycline. Then cells were loaded at 37° C. for 30 min with […] Fura-Red-AM (Molecular Probes) in serum-free DMEM/F12 medium and were subsequently washed with PBS and incubated in DMEM/F12 medium containing 10% FCS for 30 min to allow complete hydrolysis of intracellular Fura-Red-AM. Cytosolic Ca^2+ responses were recorded by confocal fluorescence microscopy (Zeiss LSM 510) using a water immersion objective (Zeiss Achroplan 63×, NA 1.2). Excitation was at 488 nm (Ar^+ laser); the 650 nm long pass emission filter was used to image Fura-Red at a rate of 1 image per second. Stock solutions of the tested odorants were prepared freshly in DMSO and diluted 1000-fold into PBS to give the desired concentrations.

hOR17-4 [2] = target: T1, hOR17-4; assay: Surface plasmon resonance (Biacore A100) odorant binding assay, detergent-solubilized receptor from HEK293S cells; set-up: of which 969 by code for the 323 amino acid hOR17-4-GlyGly-rho1D4 protein; made in house; lysate supernatant captured on the chip; conditions: not rigorously determined due to low odorant solubility above 40 μM
From the text: First, the rho1D4 mAb was covalently attached to the dextran surface of a Biacore CM4 chip using standard amine-coupling chemistry. The hOR17-4 receptor protein was then non-covalently captured on the antibody via its C-terminal rho tag (TETSQVAPA (SEQ ID NO: 50)). Odorant ligands were then applied and odorant binding detected in real time via the mass-based refractive index change. […] Low affinity Biacore data is typically characterized by fast on- and off-rates, where curvature in the association and dissociation phase may not be observable. […] However, the sensorgram data shown reinforces the prediction of low, micromolar affinities for the two odorants.
All odorant binding experiments were performed at 25° C. on a Biacore™ A100 (GE Healthcare), which has a parallel flow configuration, allowing assay development (e.g., solubilization conditions) to be tested and optimized in parallel and multiplexed format. The sensor chip CM4, amine-coupling kit, HBS (10 mM Hepes, 0.15 M NaCl, pH 7.4) and PBS were from GE Healthcare. The detailed protocol (see Supporting Information) was adapted, with several key modifications, from that previously reported by Kaiser et al. (25). […]

hOR17-4 [3] = target: T2, hOR17-4 (Homo sapiens, UniProt P34982); assay: Surface plasmon resonance (Biacore T100) odorant binding assay, cell-free produced receptor
T2 construct: made in house; host or cells: wheat germ cell-free extract (Roche RTS Wheat Germ CECF kit)
T2 sequence (P34982 1-312): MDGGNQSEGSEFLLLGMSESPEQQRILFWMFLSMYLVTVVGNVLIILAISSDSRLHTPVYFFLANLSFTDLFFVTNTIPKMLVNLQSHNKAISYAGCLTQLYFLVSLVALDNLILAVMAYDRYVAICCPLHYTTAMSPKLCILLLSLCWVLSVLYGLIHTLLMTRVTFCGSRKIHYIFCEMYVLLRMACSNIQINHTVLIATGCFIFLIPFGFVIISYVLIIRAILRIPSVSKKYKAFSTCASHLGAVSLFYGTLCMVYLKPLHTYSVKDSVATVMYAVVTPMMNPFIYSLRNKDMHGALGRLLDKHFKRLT
Experimental: All odorant binding experiments were performed on a Biacore™ T100 (GE Healthcare, Uppsala, Sweden) at 25° C. The sensor chip CM4, amine coupling kit, HBS (10 mM Hepes, 0.15 M NaCl, pH 7.4) and PBS were from (GE Healthcare, Uppsala, Sweden).
A anti His-tag antibody (R&D Systems, Minneapolis, Minn., USA) at 5 μg/ml in 10 mM sodium acetate pH 4.75 was immobilized onto a series S sensor chip using standard amine-coupling chemistry in HBS running buffer at 10 μl/min (33). The amount of coupled antibody was about 13000 RU. Control surfaces were prepared similarly without protein derivatization and utilized as a reference surfaces for compound binding experiments. Cell-free lysate containing the expressed olfactory receptor was centrifuged for […] at 14000×g at 4° C., to remove larger particles. The supernatant, containing about 0.6 mg/ml olfactory receptor, was immediately captured on the surface plasmon resonance (SPR) chip using PBS and 3% (v/v) DMSO as running buffer at 10 μl/min. […] A 30 sec pulse of coupling reagents was injected to achieve the stable baseline needed for the kinetic assay.
Fresh odorant undecanal solutions were made as follows. Pure odorant was diluted in DMSO to 0.5 M. This solution was diluted 33.3 times in PBS to obtain a […] odorant solution in running buffer with 3% (v/v) DMSO. […]

[4] = tetracycline-induced HEK293S cells

Structure (SMILES) | cytosolic Ca2+ response to odorant (hOR17-4 [1]; [4]) | equilibrium dissociation constant (hOR17-4 [2]) | further results
C/C=C/c1ccc(OC)cc1 [anithole] | No response | – | –
CC(C)(C)c1ccc(CCC=O)cc1 [bourgeonal] | transient Ca^2+ signaling | – | cells responsive to odorant (hOR17-4 [1]; stable-inducible HEK293S cells): ~100%; lowest odorant concentration giving a Ca2+ response (hOR17-4 [1]; tetracycline-induced HEK293S cells, confocal microscopy): ≤ 1 µM
CCc1ccc(CC(C)(C)C=O)cc1 [floralozone] | – | low micromolar range | –
CC(C=O)Cc1ccc(C(C)(C)C)cc1 (stereo not shown) [lilial] | – | low micromolar range | –
CCCCCCCC=O [octanal] | No response | – | –
CCCCCCCCCCC=O [undecanal] | – | – | Kd (hOR17-4 [3]; equilibrium binding responses vs concentration fitted to a simple binding isotherm, 25° C., 3% DMSO, read-out: affinity constant, KD): 22 µM and ~22 µM; dose response binding (RU) (hOR17-4 [3]; injections at 1.2, 3.7, 11, 33 and 100 uM): binding response increases by increasing odorant concentration; inhibition of bourgeonal-induced hOR17-4 activation (hOR17-4 [1]; preincubation and co-application of 100 μM with bourgeonal 100 μM): Odorant response could be blocked; also recorded: inhibited hOR17-4 activation by bourgeonal
